Laboratory results taken from patent publication US9951064B2, “Azaindazole compounds as inhibitors of T790M containing EGFR mutants” (Genentech, Inc., priority 2013, dated 2018).

What was measured:
EGFR del746-750 T790M = target: T1, EGFR del746-750 T790M (Homo sapiens, UniProt P00533, DEL746-750/T790M); assay: EGFR del746-750 T790M biochemical assay (Caliper mobility shift); settings: 5 μM ATP; apparent Ki (Morrison fit) converted by Cheng-Prusoff, Km of ATP 2.1 μM; read-out: EGFR(T790M/d746-750) Ki
T1 construct: purchased Carna Biosciences 08-528
Description: (§1) The exemplified compounds described herein were tested according to the assay below. The enzyme data reported in Tables 4-5 is generally a representative of multiple experiments.
Reactions proceed for 30 minutes at room temperature (22° C.) and are terminated with 80 mM 2,2′,2″,2″′-(ethane-1,2-diyldinitrilo)tetraacetic acid (EDTA). Product is detected using the Caliper mobility shift detection method where product and substrate are electrophoretically separated and measured.

EGFR T790M L858R = target: T2, EGFR T790M L858R (Homo sapiens, UniProt P00533, L858R/T790M); assay: EGFR T790M L858R biochemical assay (Caliper mobility shift); settings: 5 μM ATP; apparent Ki (Morrison fit) converted by Cheng-Prusoff, Km of ATP 1.3 μM
T2 construct: purchased Life Technologies PV4879
Description: as §1
Reactions proceed for 30 minutes at room temperature (22° C.) and are terminated with 80 mM 2,2′,2″,2′″-(ethane-1,2-diyldinitrilo)tetraacetic acid (EDTA). Product is detected using the Caliper mobility shift detection method where product and substrate are electrophoretically separated and measured.

[1] = test system: H1975 (EGFR T790M/L858R) cell proliferation; assay: H1975 proliferation assay (Cell Titer-Glo); assay type: cell-based; settings: Homo sapiens, NCI-H1975, 72 h, NCI-H1975 cells, 72 hour incubation, read-out: H1975 antiproliferative EC50
Description: H1975 Proliferation Assays
All cell culture reagents were purchased from Invitrogen/Gibco. Cells are cultured at 37° C. at 5% CO2 and split as recommended by ATCC.

[2] = target: T3, phosphor-EGFR in H1975(L585R/T790M) mutant EGFR expressing cells (Homo sapiens, UniProt P00533, L858R/T790M); assay: H1975 pEGFR MSD cellular assay; assay type: cell-based; settings: NCI-H1975 cells, serum starved, 1 hour compound incubation, pEGFR Tyr1068 MSD; read-out: HI975 pEGFR EC50
T3 construct: host or cells: NCI-H1975
Description: H1975 pEGFR MSD Cellular Assays
These assays are intended for determining cellular. […] (Meso Scale Discovery Catalog# N31CB-1).
NCI-H1975 (ATCC Catalog# CRL-5908) cells are maintained in medium containing RPMI 1640, 10% FBS, 4 mM L-Glutamine, 1% Penicillin-Streptomycin, and 4.5 g/L Glucose. All cell culture reagents were purchased from Invitrogen/Gibco. Cells are cultured at 37° C. at 5% CO2 and split as recommended by ATCC.
Cell Plating and Serum Starvation:
H1975 cells are harvested and plated into sterile cell culture treated 384 well plates (Greiner catalog #781091) at a density of 30,000 cells/well in 50 ul culture medium and placed in a 37° C. at 5% CO2 incubator for six hours. After six hours, culture medium is aspirated and replaced with serum-free culture medium. Cells are then incubated with the serum-free medium overnight at 37° C. and 5% CO2.
The following day, test compounds are serially diluted in dimethyl sulfoxide (DMSO) and added to cells in serum free medium (final DMSO concentration 0.5%). Assay plates are then incubated for 1 hour at 37° C. and 5% CO2. Following 1 hour of compound incubation cells are then lysed and processed as per the MSD pEGFR assay kit protocol. Cell lysates are added to assay plates pre-coated with antibodies against phosphorylated EGFR. Phosphorylated EGFR in samples are allowed to bind to the capture antibodies overnight at 4° C. The detection antibody (anti-total EGFR, labeled with an electrochemiluminescent SULFO-TAG) is added to the bound lysate and incubated for 1 hour at room temperature. The MSD Read Buffer is added such that when a voltage is applied to the plate electrodes, the labels bound to the electrode surface emit light. The MSD Sector Instrument measures the intensity of the light, and quantitatively measures the amount of phosphorylated-EGFR in the sample. Percent inhibition of EGFR phosphorylation by varying concentrations of test compounds is calculated relative to untreated controls. EC50 values are calculated using the 4 parameter logistic nonlinear regression dose-response model.

T1 sequence (P00533 with tags, fused parts or gaps DEL746-750/T790M limits assumed): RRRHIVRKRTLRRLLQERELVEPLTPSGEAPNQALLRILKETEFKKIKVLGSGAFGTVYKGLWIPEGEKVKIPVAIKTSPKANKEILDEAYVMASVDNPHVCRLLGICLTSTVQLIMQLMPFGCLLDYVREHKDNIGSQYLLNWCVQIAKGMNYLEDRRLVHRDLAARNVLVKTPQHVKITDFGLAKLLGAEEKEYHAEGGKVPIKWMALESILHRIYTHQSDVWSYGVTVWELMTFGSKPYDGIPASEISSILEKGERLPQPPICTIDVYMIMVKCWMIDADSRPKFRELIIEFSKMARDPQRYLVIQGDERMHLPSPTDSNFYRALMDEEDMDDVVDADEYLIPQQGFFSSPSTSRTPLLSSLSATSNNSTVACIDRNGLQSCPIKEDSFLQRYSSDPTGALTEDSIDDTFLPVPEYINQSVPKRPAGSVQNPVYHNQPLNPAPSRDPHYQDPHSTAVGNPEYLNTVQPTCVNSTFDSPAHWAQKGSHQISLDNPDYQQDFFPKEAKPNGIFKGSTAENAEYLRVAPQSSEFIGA
T3 sequence (P00533 25-1210 T790M/L858R): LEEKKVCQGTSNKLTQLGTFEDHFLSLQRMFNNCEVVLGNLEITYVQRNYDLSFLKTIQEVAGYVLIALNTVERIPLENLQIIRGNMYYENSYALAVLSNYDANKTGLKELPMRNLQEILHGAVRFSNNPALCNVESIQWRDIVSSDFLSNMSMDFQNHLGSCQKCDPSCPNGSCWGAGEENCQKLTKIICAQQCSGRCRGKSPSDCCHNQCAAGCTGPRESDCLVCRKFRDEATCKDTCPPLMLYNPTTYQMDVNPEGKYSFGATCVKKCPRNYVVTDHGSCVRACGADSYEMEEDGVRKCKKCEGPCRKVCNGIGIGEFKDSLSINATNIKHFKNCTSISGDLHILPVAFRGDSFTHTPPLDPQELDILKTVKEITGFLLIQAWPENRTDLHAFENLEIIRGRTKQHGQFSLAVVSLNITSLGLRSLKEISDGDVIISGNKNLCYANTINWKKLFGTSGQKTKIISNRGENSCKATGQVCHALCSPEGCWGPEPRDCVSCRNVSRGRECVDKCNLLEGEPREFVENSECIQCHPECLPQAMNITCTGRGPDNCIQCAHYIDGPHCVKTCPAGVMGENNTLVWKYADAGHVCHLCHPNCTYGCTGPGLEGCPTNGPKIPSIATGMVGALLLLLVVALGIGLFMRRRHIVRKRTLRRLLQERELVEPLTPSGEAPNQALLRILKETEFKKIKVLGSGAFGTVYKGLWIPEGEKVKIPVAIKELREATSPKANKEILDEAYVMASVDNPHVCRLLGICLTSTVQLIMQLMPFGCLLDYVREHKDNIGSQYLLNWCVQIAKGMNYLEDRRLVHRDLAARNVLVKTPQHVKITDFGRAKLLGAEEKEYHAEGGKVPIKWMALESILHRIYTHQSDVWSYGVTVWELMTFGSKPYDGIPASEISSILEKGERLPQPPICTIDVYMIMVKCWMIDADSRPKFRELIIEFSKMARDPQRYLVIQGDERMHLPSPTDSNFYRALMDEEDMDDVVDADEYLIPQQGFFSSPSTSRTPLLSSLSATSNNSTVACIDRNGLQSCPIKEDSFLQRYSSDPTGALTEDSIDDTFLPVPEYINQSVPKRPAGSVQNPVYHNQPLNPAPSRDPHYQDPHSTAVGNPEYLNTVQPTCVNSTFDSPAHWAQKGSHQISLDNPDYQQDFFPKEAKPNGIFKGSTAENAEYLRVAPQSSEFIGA
T2 sequence (P00533 25-1210 T790M/L858R): as above

Structure (SMILES)	Ki (EGFR del746-750 T790M)	Ki (EGFR T790M L858R)	EC50 [1]	EC50 [2]
CC(C)n1nc(NC(C)(C)C(N)=O)c2cnc(Nc3ccnc(N4CC[C@H](O)[C@H](F)C4)n3)cc21 (racemic) [Example 182, (±)-2-(6-(2-(cis-3-Fluoro-4-hydroxypiperidin-1-yl)pyrimidin-4-ylamino)-1-isopropyl-1H-pyrazolo[4,3-c]pyridin-3-ylamino)-2-methylpropanamide]	1150 nM	377 nM	–	–
CC(C)n1nc(N2CCN(C(=O)CO)CC2)c2cnc(Nc3ccnc(N4CCC(C)(O)CC4)n3)cc21 [Example 135, 2-Hydroxy-1-(4-(6-(2-(4-hydroxy-4-methylpiperidin-1-yl)pyrimidin-4-ylamino)-1-isopropyl-1H-pyrazolo[4,3-c]pyridin-3-yl)piperazin-1-yl)ethanone]	46.3 nM	10.3 nM	–	–
CC(C)n1nc(C2=NC(C)(C)NC2=O)c2cnc(Nc3ccnc(N4CCC(C)(O)CC4)n3)cc21 [Example 95, 4-(6-(2-(4-Hydroxy-4-methylpiperidin-1-yl)pyrimidin-4-ylamino)-1-isopropyl-1H-pyrazolo[4,3-c]pyridin-3-yl)-2,2-dimethyl-1,2-dihydroimidazol-5-one]	59.5 nM	15.2 nM	–	–
COCC1CN(c2nn(C(C)C)c3cc(Nc4ccnc(-c5cnn(S(=O)(=O)C6CC6)c5)n4)ncc23)C1 [Example 152, N-(2-(1-(Cyclopropylsulfonyl)-1H-pyrazol-4-yl)pyrimidin-4-yl)-1-isopropyl-3-(3-(methoxymethyl)azetidin-1-yl)-1H-pyrazolo[4,3-c]pyridin-6-amine]	0.8 nM	–	211 nM	–
CC(O)C(=O)N1CCN(c2nn(C(C)C)c3cc(Nc4ccnc(N5CCC(C)(O)CC5)n4)ncc23)CC1 (stereo not drawn) [Example 136, 2-Hydroxy-1-(4-(6-(2-(4-hydroxy-4-methylpiperidin-1-yl)pyrimidin-4-ylamino)-1-isopropyl-1H-pyrazolo[4,3-c]pyridin-3-yl)piperazin-1-yl)propan-1-one]	39.9 nM	10.6 nM	–	–
CCC(=O)N1CCN(c2nn(C(C)C)c3cc(Nc4ccnc(N5CCC(C)(O)CC5)n4)ncc23)CC1 [Example 134, 1-(4-(6-(2-(4-Hydroxy-4-methylpiperidin-1-yl)pyrimidin-4-ylamino)-1-isopropyl-1H-pyrazolo[4,3-c]pyridin-3-yl)piperazin-1-yl)propan-1-one]	33.7 nM	11.5 nM	–	–
CC(C)n1nc(C2CCOC2)c2cnc(Nc3ccnc(-c4cnn(S(=O)(=O)C5CC5)c4)n3)cc21 (stereo not drawn) [Example 19, N-(2-(1-(Cyclopropylsulfonyl)-1H-pyrazol-4-yl)pyrimidin-4-yl)-1-isopropyl-3-(tetrahydrofuran-3-yl)-1H-pyrazolo[4,3-c] pyridin-6-amine]	–	4.9 nM	1460 nM	723 nM
CC(C)n1ncc2cnc(Nc3ccnc(N4CCC(O)C(C)(C)C4)n3)cc21 (stereo not drawn) [Example 33, 1-(4-((1-isopropyl-1H-pyrazolo[4,3-c]pyridin-6-yl)amino)pyrimidin-2-yl)-3,3-dimethylpiperidin-4-ol]	–	7.5 nM	110 nM	1020 nM

The remaining lines, values ahead:

Ki (EGFR del746-750 T790M)	Ki (EGFR T790M L858R)	EC50 [1]	EC50 [2]	Structure (SMILES)
–	1.1 nM	775 nM	84.8 nM	CC(C)n1nc(N[C@@H]2CCOC2)c2cnc(Nc3ccnc(-c4cnn(S(=O)(=O)C5CC5)c4)n3)cc21 [Example 40, (R)-N6-(2-(1-(cyclopropylsulfonyl)-1H-pyrazol-4-yl)pyrimidin-4-yl)-1-isopropyl-N3-(tetrahydrofuran-3-yl)-1H-pyrazolo[4,3-c]pyridine-3,6-diamine]
–	2.2 nM	1110 nM	90.1 nM	CC(C)n1nc(NC2CCOCC2)c2cnc(Nc3ccnc(-c4cnn(S(=O)(=O)C5CC5)c4)n3)cc21 [Example 52, N^6-(2-(1-(cyclopropylsulfonyl)-1H-pyrazol-4-yl)pyrimidin-4-yl)-1-isopropyl-N^3-(tetrahydro-2H-pyran-4-yl)-1H-pyrazolo[4,3-c]pyridine-3,6-diamine]
–	2.7 nM	951 nM	153 nM	CC(C)Nc1nn(C(C)C)c2cc(Nc3ccnc(-c4cnn(S(=O)(=O)C5CC5)c4)n3)ncc12 [Example 46, N^6-(2-(1-(cyclopropylsulfonyl)-1H-pyrazol-4-yl)pyrimidin-4-yl)-N^3,1-diisopropyl-1H-pyrazolo[4,3-c]pyridine-3,6-diamine]
–	1.1 nM	921 nM	79.7 nM	CCS(=O)(=O)n1cc(-c2nccc(Nc3cc4c(cn3)c(NC3COC3)nn4C(C)C)n2)cn1 [Example 16, N^6-(2-(1-(Ethylsulfonyl)-1H-pyrazol-4-yl)pyrimidin-4-yl)-1-isopropyl-N^3-(oxetan-3-yl)-1H-pyrazolo[4,3-c]pyridine-3,6-diamine]
–	1.2 nM	139 nM	9.4 nM	CC(C)n1nc(N2CC[C@H](CO)C2)c2cnc(Nc3ccnc(-c4cnn(S(=O)(=O)C5CC5)c4)n3)cc21 [Example 58, (S)-(1-(6-(2-(1-(cyclopropylsulfonyl)-1H-pyrazol-4-yl)pyrimidin-4-ylamino)-1-isopropyl-1H-pyrazolo[4,3-c]pyridin-3-yl)pyrrolidin-3-yl)methanol]
–	1 nM	216 nM	19.3 nM	CCC(C)n1nc(N2CC3(COC3)C2)c2cnc(Nc3ccnc(-c4cnn(S(=O)(=O)C5CC5)c4)n3)cc21 (racemic) [Example 14, 1-(sec-Butyl)-N-(2-(1-(cyclopropylsulfonyl)-1H-pyrazol-4-yl)pyrimidin-4-yl)-3-(2-oxa-6-azaspiro[3.3]heptan-6-yl)-1H-pyrazolo[4,3-c]pyridin-6-amine]
–	1.4 nM	1060 nM	116 nM	CC(C)n1nc(N2CCCC2)c2cnc(Nc3ccnc(-c4cnn(CC5CC5)c4)n3)cc21 [Example 31, N-(2-(1-(cyclopropylmethyl)-1H-pyrazol-4-yl)pyrimidin-4-yl)-1-isopropyl-3-(pyrrolidin-1-yl)-1H-pyrazolo[4,3-c]pyridin-6-amine]
–	0.7 nM	945 nM	98 nM	CC(C)n1nc(N(C)CC(O)CO)c2cnc(Nc3ccnc(-c4cnn(S(=O)(=O)C5CC5)c4)n3)cc21 (stereo not drawn) [Example 49, 3-((6-(2-(1-(cyclopropylsulfonyl)-1H-pyrazol-4-yl)pyrimidin-4-ylamino)-1-isopropyl-1H-pyrazolo[4,3-c]pyridin-3-yl)(methyl)amino)propane-1,2-diol]
–	1.1 nM	240 nM	12.5 nM	CC(C)n1nc(N2CC(O)C(F)C2)c2cnc(Nc3ccnc(-c4cnn(S(=O)(=O)C5CC5)c4)n3)cc21 (stereo not drawn) [Example 42, 1-(6-(2-(1-(cyclopropylsulfonyl)-1H-pyrazol-4-yl)pyrimidin-4-ylamino)-1-isopropyl-1H-pyrazolo[4,3-c]pyridin-3-yl)-trans-4-fluoropyrrolidin-3-ol]
–	0.8 nM	3970 nM	874 nM	CC(C)n1nc(NCCC(N)=O)c2cnc(Nc3ccnc(-c4cnn(S(=O)(=O)C5CC5)c4)n3)cc21 [Example 47, 3-(6-(2-(1-(cyclopropylsulfonyl)-1H-pyrazol-4-yl)pyrimidin-4-ylamino)-1-isopropyl-1H-pyrazolo[4,3-c]pyridin-3-ylamino)propanamide]
–	2.5 nM	1080 nM	135 nM	CC(C)n1nc(N2CCOCC2)c2cnc(Nc3ccnc(N4CCC(O)C(F)C4)n3)cc21 (racemic) [Example 20, (±)-cis-3-Fluoro-1-[4-(1-isopropyl-3-morpholin-4-yl-1H-pyrazolo[4,3-c]pyridin-6-ylamino)pyrimidin-2-yl]piperidin-4-ol]
